Structures can show the parent of a compound that is named as a salt.
Key:
HT-29 = experiment: Cytotoxicity against human HT-29 cells by MTT assay; format: functional, cell-based
[1] = target: DNA topoisomerase 2-alpha (Homo sapiens) (UniProt P11388); experiment: Inhibition of human topoisomerase 2 at 100 uM
[2] = target: DNA topoisomerase 2-alpha (Homo sapiens) (UniProt P11388); experiment: Inhibition of human topoisomerase 2 at 20 uM
DU-145 = experiment: Cytotoxicity against human DU145 cells by MTT assay; format: functional, cell-based
HL-60 = experiment: Cytotoxicity against human HL60 cells by MTT assay; format: functional, cell-based
[3] = target: T1, DNA topoisomerase 1 (Homo sapiens) (UniProt P11387); experiment: Inhibition of human topoisomerase 1 at 20 uM
T1 sequence (whole entry): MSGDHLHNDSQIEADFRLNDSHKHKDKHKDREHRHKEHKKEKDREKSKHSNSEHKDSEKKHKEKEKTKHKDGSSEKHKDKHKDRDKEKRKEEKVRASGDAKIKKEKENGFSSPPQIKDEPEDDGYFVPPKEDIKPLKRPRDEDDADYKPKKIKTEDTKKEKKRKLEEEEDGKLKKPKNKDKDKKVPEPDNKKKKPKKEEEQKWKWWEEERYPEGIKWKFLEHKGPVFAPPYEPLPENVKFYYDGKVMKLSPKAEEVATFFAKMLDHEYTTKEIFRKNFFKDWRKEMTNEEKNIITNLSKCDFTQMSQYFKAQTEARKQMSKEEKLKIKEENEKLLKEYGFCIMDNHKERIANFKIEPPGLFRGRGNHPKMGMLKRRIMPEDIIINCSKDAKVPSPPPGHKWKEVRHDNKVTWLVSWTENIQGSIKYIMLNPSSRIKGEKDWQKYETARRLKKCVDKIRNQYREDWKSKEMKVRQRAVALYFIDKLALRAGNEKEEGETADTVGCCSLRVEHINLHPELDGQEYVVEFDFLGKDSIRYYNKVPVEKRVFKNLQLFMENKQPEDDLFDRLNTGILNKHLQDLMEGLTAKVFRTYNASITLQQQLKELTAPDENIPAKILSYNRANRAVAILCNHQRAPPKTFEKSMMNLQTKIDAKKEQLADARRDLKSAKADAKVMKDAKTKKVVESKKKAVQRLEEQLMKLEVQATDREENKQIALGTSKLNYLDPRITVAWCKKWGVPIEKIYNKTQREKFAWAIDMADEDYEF

[4] = target: T1, DNA topoisomerase 1 (Homo sapiens); experiment: Inhibition of human topoisomerase 1 at 100 uM
HeLa = experiment: Cytotoxicity against human HeLa cells by MTT assay; format: functional, cell-based
MDA-MB-231 = experiment: Cytotoxicity against human MDA-MB-231 cells by MTT assay; format: functional, cell-based

Chain of DNA topoisomerase 2-alpha (Homo sapiens) (P11388 whole entry): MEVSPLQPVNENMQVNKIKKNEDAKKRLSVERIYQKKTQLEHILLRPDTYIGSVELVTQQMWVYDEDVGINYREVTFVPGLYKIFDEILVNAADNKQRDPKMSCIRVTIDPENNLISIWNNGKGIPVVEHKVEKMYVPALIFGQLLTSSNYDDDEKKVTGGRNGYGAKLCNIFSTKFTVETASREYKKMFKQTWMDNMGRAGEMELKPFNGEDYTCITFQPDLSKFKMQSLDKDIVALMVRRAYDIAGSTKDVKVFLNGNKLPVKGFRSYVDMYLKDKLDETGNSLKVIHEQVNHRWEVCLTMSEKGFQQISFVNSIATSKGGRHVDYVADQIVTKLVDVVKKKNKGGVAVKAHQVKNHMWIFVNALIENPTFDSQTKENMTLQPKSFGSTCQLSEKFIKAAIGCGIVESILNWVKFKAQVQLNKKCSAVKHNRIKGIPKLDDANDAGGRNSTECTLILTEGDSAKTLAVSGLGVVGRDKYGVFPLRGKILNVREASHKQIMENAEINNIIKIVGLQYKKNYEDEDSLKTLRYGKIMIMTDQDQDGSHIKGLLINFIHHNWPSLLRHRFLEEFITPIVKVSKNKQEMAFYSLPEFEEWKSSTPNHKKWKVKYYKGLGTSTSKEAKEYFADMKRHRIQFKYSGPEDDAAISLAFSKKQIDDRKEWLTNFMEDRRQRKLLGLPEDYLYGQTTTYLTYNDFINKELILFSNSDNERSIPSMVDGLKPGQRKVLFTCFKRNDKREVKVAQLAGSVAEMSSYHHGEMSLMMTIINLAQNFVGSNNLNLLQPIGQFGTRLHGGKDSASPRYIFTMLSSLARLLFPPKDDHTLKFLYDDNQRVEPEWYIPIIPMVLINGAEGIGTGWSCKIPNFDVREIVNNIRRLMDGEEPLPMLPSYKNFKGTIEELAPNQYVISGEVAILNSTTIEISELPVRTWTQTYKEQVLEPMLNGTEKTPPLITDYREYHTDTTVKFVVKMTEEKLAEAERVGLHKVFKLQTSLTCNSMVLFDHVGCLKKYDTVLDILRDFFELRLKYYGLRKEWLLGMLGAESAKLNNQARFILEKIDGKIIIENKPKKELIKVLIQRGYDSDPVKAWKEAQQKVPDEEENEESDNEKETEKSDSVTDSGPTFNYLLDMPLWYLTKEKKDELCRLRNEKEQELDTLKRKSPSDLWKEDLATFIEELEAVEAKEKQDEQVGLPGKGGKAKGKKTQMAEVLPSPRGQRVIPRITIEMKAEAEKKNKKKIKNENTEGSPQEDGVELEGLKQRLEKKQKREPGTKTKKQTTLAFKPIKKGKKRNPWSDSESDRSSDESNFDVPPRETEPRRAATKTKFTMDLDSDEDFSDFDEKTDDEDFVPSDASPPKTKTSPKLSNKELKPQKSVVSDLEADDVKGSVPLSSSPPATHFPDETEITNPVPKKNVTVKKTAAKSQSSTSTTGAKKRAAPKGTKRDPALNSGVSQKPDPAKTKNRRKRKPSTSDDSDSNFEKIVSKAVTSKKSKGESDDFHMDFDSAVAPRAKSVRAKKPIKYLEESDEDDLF

Row | Structure (SMILES) | IC50 (HT-29) [µM] | inhibition [1] [%] | inhibition [2] [%] | IC50 (DU-145) [µM] | IC50 (HL-60) [µM] | inhibition [3] [%] | inhibition [4] [%] | IC50 (HeLa) [µM] | IC50 (MDA-MB-231) [µM]
1 | O=c1c2ccccc2[nH]c2cc(OCC3CS3)cc(O)c12 (centres undefined) | 33 | 8.7 | 8.1 | 23 | 23 | 0 | 2.3 | > 50 | 21.4
2 | COc1cccc2c1C(=O)c1c(O)c3c(c(O)c1C2=O)C[C@@](O)(C(=O)CO)C[C@@H]3O[C@H]1C[C@H](N)[C@H](O)[C@H](C)O1 [DOXORUBICIN HYDROCHLORIDE] | 3.9 |  |  | 2.54 | 0.88 |  |  | 1.08 | 1.67
3 | O=c1c2cccnc2oc2cc(OCC3CO3)cc(O)c12 (centres undefined) | 26.3 | 30.3 | 8.3 | 8.11 | 24.8 | 1.8 | 0 | 22.1 | 24.3
4 | O=c1c2cccnc2oc2cc(OCC3CS3)cc(OCC3CS3)c12 (centres undefined) | > 50 | 6.7 | 8.6 | 21 | 10.5 | 5.2 | 0 | 9.96 | 13
5 | COc1cc([C@@H]2c3cc4c(cc3[C@@H](O[C@@H]3O[C@@H]5CO[C@@H](C)O[C@H]5[C@H](O)[C@H]3O)[C@H]3COC(=O)[C@H]23)OCO4)cc(OC)c1O [ETOPOSIDE] | 6.32 |  | 13.4 | 5.16 | 0.93 |  |  | 2.15 | 3.5
6 | O=c1c2ccccc2[nH]c2cc(OCC3CO3)cc(OCC3CO3)c12 (centres undefined) | 29.3 | 13.2 | 8.7 | 30.9 | 22 | 2.5 | 0 | > 50 | 28.9
7 | O=c1c2cccnc2oc2cc(OCC3CS3)cc(O)c12 (centres undefined) | > 50 | 19.5 | 9.2 | 15.8 | 20.1 | 26.7 | 50.3 | 6.9 | 18.2
8 | O=c1c2ccccc2[nH]c2cc(OCC3CS3)cc(OCC3CS3)c12 (centres undefined) | 23.2 | 6.9 | 8.5 | 23.2 | 7.73 | 0 | 0 | 11.1 | 8.02
9 | O=c1c2ccccc2[nH]c2cc(OCC3CO3)cc(O)c12 (centres undefined) | > 50 | 18.1 | 12.9 | > 50 | 12.5 | 10.8 | 9.1 | > 50 | 18.6
10 | CC[C@@]1(O)C(=O)OCc2c1cc1n(c2=O)Cc2cc3ccccc3nc2-1 [CAMPTOTHECIN] | 1.07 |  |  | 1 | 0.067 |  |  | 0.58 | 0.68

From ChEMBL document CHEMBL1154361, “Oxiranylmethyloxy or thiiranylmethyloxy-azaxanthones and -acridone analogues as potential topoisomerase I inhibitors” (Bioorg Med Chem Lett, 2009)
